Experimental data published in patent US20100286255A1, “METHOD FOR EXTRACTING SECOISOLARICIRESINOL AND DIHYDROQUERCETIN FROM WOOD” (priority 2007, published 2010).

Tests used:
[1] = system: Saccharomyces cerevisiae BKM Y-1173; assay: Survival rate of S. cerevisiae cells under the action of hydrogen peroxide (antioxidant activity); type: cell-based; conditions: antioxidant 5 mg/ml (for DHQ + SECO, total concentration of both), 1 h incubation
Procedure: Antioxidant activity of DHQ, SECO, and their complexes obtained under the conditions of Examples 6 and 7 was studied by a known method (D. J. Jamieson, “Saccharomyces cerevisiae has distinct adaptive responses to both hydrogen peroxide and menadione” J. Bacteriol. 174: 6678-6681 (1992)) on yeast Saccharomyces cerevisiae BKM Y-1173. The yeasts were grown to the mid-logarithmic growth stage on […] medium containing 2% glucose, the yeast extract, and mineral salts. The yeast cells were separated from the medium by centrifugation, two times washed with water, and incubated with hydrogen peroxide and antioxidants in an aqueous suspension (OD600 0.1-0.15) for 1 h with periodic shaking. Then the corresponding dilutions were made, the yeasts were seeded on the agarized glucose-peptone medium and cultivated for […] at 30° C., and the number of grown colonies and the survival rate of S. cerevisiae cells were counted (Table 1).

[2] = system: MCF-7 cells; assay: Proliferation of human breast cancer cells MCF-7 (estrogenic and antiestrogenic activity); type: cell-based; conditions: ethanol test = 100
Procedure: The comparative study of the proliferation of the human breast cancer cells MCF-7 under the action of estradiol, SECO, and SECO-containing extracts was carried out according to a known method (H. Adlercreutz, Y. Mousavi, “Enterolactone and estradiol inhibit each other's proliferative effect on MCF-7 breast cancer cells in culture,” J. Steroid. Biochem. Mol. Biol. 41: 615-619 (1992)). To estimate the estrogenic activity of the preparations containing SECO, 1 M solutions of the latter in ethanol (the concentration is indicated for SECO present in the solution) were added to the cell culture with achievement of the final 1 μM concentration of SECO. In each experiment on proliferation, 17β-estradiol was used as a positive standard for the estimation of the estrogenic activity and was also added as an ethanolic solution to achieve the final 1 nM concentration. To estimate the antiestrogenic activity, solutions of 17β-estradiol and the tested SECO preparations, among which there were the preparations obtained under the conditions of Examples 6, 7, and 14, were simultaneously added to the cell culture. The cell proliferation was estimated by counting the number of cells with the Coulter counter, and the results obtained are summarized in Table 2. In the test experiment (see entry 1 in Table 2), ethanol without lignan was added. Five measurements were carried out under each type of conditions.

SMILES | Survival rate, % of test ([1]; 5 mM H2O2) | Survival rate, % of test ([1]; 10 mM H2O2) | Survival rate, % of test ([1]; Test (no H2O2)) | Proliferation of cells MCF-7, % ([2]; antiestrogenic activity, added simultaneously with 17β-estradiol (1 nM), SECO 1 μM) [%] | Proliferation of cells MCF-7, % ([2]; estrogenic activity, preparation alone, final 1 μM concentration of SECO) [%] | Proliferation of cells MCF-7, % ([2]; positive standard alone, final 1 nM concentration) [%]
O=C1c2c(O)cc(O)cc2O[C@H](c2ccc(O)c(O)c2)[C@H]1O [DHQ (Example 13), Dihydroquercetin] | 35 ± 5 % of test | 9 ± 2 % of test | 100 % of test | – | – | –
COc1cc(C[C@@H](CO)[C@H](CO)Cc2ccc(O)c(OC)c2)ccc1O [SECO (Example 14), secoisolariciresinol] | 35 ± 5 % of test | 9 ± 1 % of test | 100 % of test | 115 ± 10 | 115 ± 10 | –
C[C@]12CC[C@@H]3c4ccc(O)cc4CC[C@H]3[C@@H]1CC[C@@H]2O [17β-estradiol, reference compound] | – | – | – | – | – | 140 ± 15
